In patent US20240166626A1, “Compounds and Methods for Preventing, Treating, or Ameliorating Airway Disease” (THOMAS JEFFERSON UNIVERSITY, priority 2021, published 2024):

Molecular target: T1, GRK2 (Homo sapiens, UniProt P25098)
T1 sequence (P25098 1-689): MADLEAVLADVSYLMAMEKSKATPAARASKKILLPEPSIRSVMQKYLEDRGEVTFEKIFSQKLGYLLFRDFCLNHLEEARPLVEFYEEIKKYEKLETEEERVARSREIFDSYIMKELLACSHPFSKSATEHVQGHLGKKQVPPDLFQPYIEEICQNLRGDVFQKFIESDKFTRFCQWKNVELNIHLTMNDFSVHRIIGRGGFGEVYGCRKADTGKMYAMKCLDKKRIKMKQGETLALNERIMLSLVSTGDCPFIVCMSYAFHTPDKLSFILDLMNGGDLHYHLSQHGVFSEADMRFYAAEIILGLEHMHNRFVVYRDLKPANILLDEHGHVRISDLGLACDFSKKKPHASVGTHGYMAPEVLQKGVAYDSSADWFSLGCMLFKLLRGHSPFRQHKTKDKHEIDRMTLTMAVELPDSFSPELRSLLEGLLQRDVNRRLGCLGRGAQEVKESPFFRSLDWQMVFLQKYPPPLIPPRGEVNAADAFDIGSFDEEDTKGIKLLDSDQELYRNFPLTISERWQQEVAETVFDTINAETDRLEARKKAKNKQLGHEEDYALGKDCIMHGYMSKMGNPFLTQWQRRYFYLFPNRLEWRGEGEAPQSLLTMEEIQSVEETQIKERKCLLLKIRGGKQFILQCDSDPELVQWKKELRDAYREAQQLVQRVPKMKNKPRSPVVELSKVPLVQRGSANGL
Test: In vitro tubulin phosphorylation assay with purified GRK2
Assay type: biochemical
Conditions: 10 μM DFPQ, 60-minute time course, FIG. 3C
Procedure: FIGS. 3A-3D: DFPQ inhibits GRK-mediated phosphorylation of the β2AR. FIG. 3A: Representative time course of agonist promoted phosphorylation of the β2AR. […] Cells were lysed and the FLAG-β2AR was immunoprecipitated. Phosphorylation at […] and 356 was analyzed by western blot using a pSer^355/356 antibody while total β2AR was measured using a β2AR C-terminal antibody. The western blot is representative of at least 3 experiments and is quantified in FIG. 3B. FIG. 3C: […] FIG. 3D: Bar graphs represent pixel densitometry of radiolabeled tubulin at the 60 min timepoint from 4 experiments. […]® ADRB2 cells (DiscoveRx) were maintained with the AssayCompleteTM Cell Culture kit (DiscoveRx catalog #92-[…]). […] Cells were read every three minutes for 18 minutes on a PolarStar Optima plate reader (BMG) to establish peak signal. […] Luminescence was determined at room temperature (23-25° C.) on a PolarStar Optima plate reader (BMG). […] Relative assay bias was calculated from the ratio of normalized cAMP and arrestin recruitment responses. […] BRET was measured using a Tecan Infinite F500 microplate reader. […] Bound [35 S]GTPγS was collected by rapid filtration on GF/B filters, washed 4 times with 4 ml of cold GTPγS wash buffer and analyzed by liquid scintillation counting. […] Immunoprecipitated proteins were separated by SDS-PAGE and analyzed by western blot using a β2AR C-terminal tail or phospho-specific antibody. […]

`Fc1ccc(Nc2nc(NC3CCCCC3)c3ccccc3n2)cc1F` [DFPQ, N^4-cyclohexyl-N^2-(3,4-difluorophenyl)quinazoline-2,4-diamine] was tested, and the “phosphorylation of tubulin by GRK2” value was “unaffected”.
